# Laboratory results reported in US20230159509A1 (Amathus Therapeutics, Inc., priority 2020, published 2023).
# Target: T1, TRAP1 enzyme (Homo sapiens, UniProt Q12931)
# T1 construct: 150 nM Trap1 enzyme was incubated with various concentrations of the test compound
# T1 sequence (Q12931 60-704): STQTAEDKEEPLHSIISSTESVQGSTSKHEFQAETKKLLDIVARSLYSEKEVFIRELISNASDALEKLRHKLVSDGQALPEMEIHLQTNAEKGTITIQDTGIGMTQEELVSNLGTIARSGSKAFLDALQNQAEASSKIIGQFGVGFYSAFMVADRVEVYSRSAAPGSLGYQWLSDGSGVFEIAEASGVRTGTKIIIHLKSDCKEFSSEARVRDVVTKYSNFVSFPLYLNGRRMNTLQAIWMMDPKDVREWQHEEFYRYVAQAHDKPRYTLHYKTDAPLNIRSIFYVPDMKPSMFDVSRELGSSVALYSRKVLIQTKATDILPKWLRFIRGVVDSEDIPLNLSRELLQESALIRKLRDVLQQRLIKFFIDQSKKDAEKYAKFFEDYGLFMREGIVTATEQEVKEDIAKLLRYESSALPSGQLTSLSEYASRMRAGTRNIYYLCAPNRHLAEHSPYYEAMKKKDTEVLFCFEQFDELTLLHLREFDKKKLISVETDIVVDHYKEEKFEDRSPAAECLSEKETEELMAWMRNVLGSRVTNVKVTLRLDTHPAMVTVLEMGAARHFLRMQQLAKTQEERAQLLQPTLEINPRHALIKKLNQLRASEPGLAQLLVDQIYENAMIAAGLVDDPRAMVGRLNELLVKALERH
# Assay: ADP Glo assay of TRAP1 ATPase activity
# Type: biochemical
# Conditions: 1 h; compound concentration 50 μM; read-out: ADP-Glo Percent Activation at 50 μM
# Method in brief: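 Compound (0.79–100 μM) was preincubated 30 min at 37° C with 150 nM TRAP1 in 25 mM Pipes pH 7.5, 40 mM KCl, 0.05 mM MgCl2. Reaction started with 20 μM ATP, 60 min at 37° C. ADP measured by luminescence against a standard curve; activation fitted sigmoidally for EC50 and Emax.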
row,Structure (SMILES),activation at 50 µM [%]
1,COc1ncc(NC(=O)c2ccc(C(F)(F)F)s2)cc1S(=O)(=O)Nc1c(C)cccc1C [compound 2644],151 to 180
2,COc1ncc(NC(=O)c2cc(C)nn2C(F)F)cc1S(=O)(=O)Nc1c(C)cccc1C [compound 2646],151 to 180
3,COc1ncc(NC(=O)c2scnc2C(F)(F)F)cc1S(=O)(=O)Nc1c(C)cccc1C [compound 2649],151 to 180
4,COc1ncc(NC(=O)c2ccnn2CC(F)(F)F)cc1S(=O)(=O)Nc1c(C)cccc1C [compound 2651],181 to 352
5,COc1ncc(NC(=O)c2ccc(-n3nc(C)nc3C)cc2)cc1S(=O)(=O)Nc1c(C)cccc1C [compound 2656],181 to 352
6,COc1ncc(NC(=O)c2nc(C(F)(F)F)cs2)cc1S(=O)(=O)Nc1c(C)cccc1C [compound 2659],151 to 180
7,COc1ncc(NC(=O)c2cnc(C(F)(F)F)s2)cc1S(=O)(=O)Nc1c(C)cccc1C [compound 2660],120 to 150
8,COc1ncc(NC(=O)c2ccc(OCC(F)(F)F)cc2)cc1S(=O)(=O)Nc1c(C)cccc1C [compound 2662],120 to 150
9,COCCn1ccc(C(=O)Nc2cnc(OC)c(S(=O)(=O)Nc3c(C)cccc3C)c2)n1 [compound 2665],120 to 150
10,COc1ncc(NC(=O)c2cc(NC(C)=O)ccc2Cl)cc1S(=O)(=O)Nc1c(C)cccc1C [compound 2669],151 to 180
11,COc1ncc(NC(=O)c2ccc(NC(C)=O)cc2C)cc1S(=O)(=O)Nc1c(C)cccc1C [compound 2670],151 to 180
12,COc1ncc(NC(=O)c2ccc(NC(=O)C3CC3)cc2)cc1S(=O)(=O)Nc1c(C)cccc1C [compound 2671],120 to 150
13,COc1ncc(NC(=O)c2ncn(C)c2C(F)(F)F)cc1S(=O)(=O)Nc1c(C)cccc1C [compound 2672],120 to 150
14,COc1ncc(NC(=O)c2ccc3c(c2)NC(=O)CC3)cc1S(=O)(=O)Nc1c(C)cccc1C [compound 2677],120 to 150
15,COc1ncc(NC(=O)c2cnn(C)c2C(F)(F)F)cc1S(=O)(=O)Nc1c(C)cccc1C [compound 2678],151 to 180
16,COCCn1nccc1C(=O)Nc1cnc(OC)c(S(=O)(=O)Nc2c(C)cccc2C)c1 [compound 2679],120 to 150

# Second part, the compound after the results:
row,activation at 50 µM [%],Structure (SMILES)
1,120 to 150,COc1ncc(NC(=O)c2cscn2)cc1S(=O)(=O)Nc1c(C)cccc1C [compound 2650]
2,151 to 180,COc1ncc(NC(=O)c2ccc(N3CCOCC3)cn2)cc1S(=O)(=O)Nc1c(C)cccc1C [compound 2653]
3,120 to 150,COc1ncc(NC(=O)c2scnc2C)cc1S(=O)(=O)Nc1c(C)cccc1C [compound 2654]
4,181 to 352,COc1ncc(NC(=O)c2ccc(N3CCOCC3)c(F)c2)cc1S(=O)(=O)Nc1c(C)cccc1C [compound 2655]
5,181 to 352,COc1ccnc(C(=O)Nc2cnc(OC)c(S(=O)(=O)Nc3c(C)cccc3C)c2)c1 [compound 2657]
6,120 to 150,COc1ncc(NC(=O)c2cncs2)cc1S(=O)(=O)Nc1c(C)cccc1C [compound 2658]
7,151 to 180,COc1ncc(NC(=O)c2cnc(C)s2)cc1S(=O)(=O)Nc1c(C)cccc1C [compound 2661]
8,151 to 180,COc1ncc(NC(=O)c2cc3n(n2)CCC3)cc1S(=O)(=O)Nc1c(C)cccc1C [compound 2663]
9,120 to 150,COc1ncc(NC(=O)c2ccn(C)c2)cc1S(=O)(=O)Nc1c(C)cccc1C [compound 2666]
10,181 to 352,COc1ncc(NC(=O)c2ncsc2C)cc1S(=O)(=O)Nc1c(C)cccc1C [compound 2667]
11,181 to 352,COc1ncc(NC(=O)c2cnn3c2CCCC3)cc1S(=O)(=O)Nc1c(C)cccc1C [compound 2673]
12,151 to 180,COc1ncc(NC(=O)c2coc(N3CCOCC3)n2)cc1S(=O)(=O)Nc1c(C)cccc1C [compound 2674]
13,120 to 150,CCOc1c(C(=O)Nc2cnc(OC)c(S(=O)(=O)Nc3c(C)cccc3C)c2)cnn1C [compound 2675]
